Assay results as given in patent publication US20120156146A1, “Compositions and Methods for Improving the Appearance of Facial Texture” (priority 2010, published 2012).

What was measured:
[1] = test system: textured facial skin (upper cheek area); assay: In vivo facial texture test (Texture Area Fraction, split face, vehicle controlled); set-up: species or system human; conditions: vehicle+5% Hexyldecanol, 0.5 g per side of face twice daily, topical, 8 weeks, 330 subjects
Experimental: A 9 week in vivo study was conducted using a round robin, vehicle controlled, split face design including a 1 week normalization period with 330 subjects.
Treatment Regimen—The regimen begins with a one week washout period. […]
Images of the facial treatment sites are captured at baseline (week 0), and after 4 and 8 weeks of treatment and analyzed for changes to facial texture. […]
The region of interest (ROI), in this case the upper cheek area, was marked manually based on 12 predefined facial landmarks around the cheek—for example, corners of the eye, bridge of the nose, corners of the mouth. The degree of textured skin in the ROI were quantified objectively using image analysis algorithms based on an Optimus software platform, which automatically locates each surface feature and quantifies the total number, length and area of facial features shorter than 5 mm and less than 0.16 mm wide, known magnification used to convert pixel data to actual length and area data. […]

[2] = test system: HAS-2 gene (Hyaluronic Acid Synthase-2 gene); assay: Hyaluronic Acid (HA) Synthase expression, GeneChip microarray in keratinocyte culture; assay type: cell-based; conditions: human telomerized keratinocytes, 10 micro molar, 6 hours exposure, six Affymetrix GeneChips, p-value=0.0366
Experimental: Individual experiments (referred to as batches) are generally comprised of 60 Affymetrix GeneChips® (referred to as “instances”) containing 6 vehicle control samples, 2 positive control samples and 52 individual test material samples. Duplication of test materials is performed across batches. In vitro testing is performed in 6-well plates to provide sufficient RNA for GeneChip® analysis (2-4 ug total RNA yield/well). Human telomerized keratinocytes are grown in EpiLife® media with 1× Human Keratinocyte Growth Supplement (Invitrogen) on collagen I coated cell culture flasks and plates (Becton Dickinson). Cells are seeded into 6-well plates at 20,000 cells/cm2 24 hours before chemical exposure. At t=−24 hours cells are trypsinized from T-75 flasks and plated into 6-well plates in basal growth medium. At t=0 media is removed and replaced with the appropriate dosing solution as per the experimental design. Dosing solutions are prepared the previous day in sterile 4 ml Falcon snap cap tubes. After 6 hours of chemical exposure cells are viewed and imaged. Cells are then lysed with 350 ul/well of RLT buffer containing β-mercaptoethanol (Qiagen), transferred to a 96-well plate, and stored at −20° C. […]
Data quality was determined using a variety of statistical measures, including t-tests, scatter biplots, and principal components analysis, depending upon the source and character of the data. […]

CCCCCCCCC(CO)CCCCCC (centres unmarked) [Hexyldecanol, 2-hexyldecan-1-ol]
Texture Area Fraction reduction versus vehicle control [1]: significantly (p<=0.10) reducing Texture Area Fraction better than the control | average fold change of transcriptional expression level of HAS-2 probe set IDs [2]: 1.336 fold change
